One compound from patent US6506552B2, “Amino acid-trehalose composition” (Meiji Dairies Corporation, priority 1998, dated 2003) can be followed below.

The test can be described thus: Forced swimming of mice in a running water pool after oral administration; blood lactic acid, blood sugar and free fatty acid levels. It is filed as in vivo, mice (male; ddY). The protocol: This experiment was carried out according to the method disclosed in Jpn. J. Phys. Fitness Sports Med., 1995, 44:225-238. More specifically, mice (male; ddY) (6-week-old; 5 animals per group) were fasted at room temperature for 16 hours, followed by oral administration of a 1.8% by weight aqueous solution containing the composition VAAM or HVAAM as set forth in Table 1 or trehalose; an aqueous solution containing 1.8% by weight of VAAM and 2% by weight of trehalose; or an aqueous solution containing 1.8% by weight of VAAM analogue as set forth in Table 1 and 2% by weight of trehalose in an amount of 37.5 μl/g body weight and thereafter giving the mice a rest at room temperature for 30 minutes. Then the mice were forced to swim in a running water pool (a water tank having a diameter of 32 cm and a depth of 30 cm, which was filled with water maintained at 35° C. and in which the water was circulated at a rate of 8 m/min using a circulator) for 30 minutes. After forcing the mice to swim, they were inspected for the lactic acid level in the blood, the blood sugar (glucose) level and the free fatty acid level in the blood.
The lactic acid level in the blood was determined using a clinical reagent available from Sigma Company, by measuring absorbance at 340 nm due to NADH, each molecule of which was formed when lactic acid was converted into pyruvic acid because of the action of lactic acid dehydrogenase. The free fatty acid level in the serum was determined by centrifuging the collected blood and then quantitatively analyzing the fatty acids present in the supernatant. More specifically, the hydrogen peroxide formed by the action of acyl-CoA synthetic enzyme and acyl-CoA oxidase was reacted with a peroxidase, followed by determination of the absorbance at 550 nm due to the stained 3-methyl-N-ethyl-N-(2-hydroxyethyl)aniline and 4-aminoantipyrine to thus determine the free fatty acid level.

As to `OC[C@H]1O[C@H](O[C@H]2O[C@H](CO)[C@@H](O)[C@H](O)[C@H]2O)[C@H](O)[C@@H](O)[C@@H]1O` [Tre, α, α-trehalose], the “Blood Sugar Level” value (blood glucose, mice fasted 16 h, oral 37.5 μl/g body weight, 30 min rest, after 30 min forced swimming) amounted to 83.14 mg/dL. Moreover, under “blood, mice fasted 16 h, oral 37.5 μl/g body weight, 30 min rest, after 30 min forced swimming”, the “Lactic Acid Level” value amounted to 46.69 mg/dL. This compound yielded an NEFA (free fatty acid in serum, mice fasted 16 h, oral 37.5 μl/g body weight, 30 min rest, after 30 min forced swimming) of 0.97 mEq/l. Also, the “free fatty acid level in the blood compared with the group to which 1.8% VAAM was administered” value (mice, after 30 min swimming, FIG. 3, p<0.05) is “significantly higher”. For the setting “mice, after load of swimming over 30 minutes, FIG. 1”, the “lactic acid level in the blood compared with the group to which VAAM was administered” value is on record as “did not show any significant difference”.
